Experimental data: US12441768B2, “Compositions and methods for treating endometriosis” (EndoMet Biosciences, Inc., priority 2018, dated 2025)
pEC50, pKd: −log10 of the molar value. Where a SMILES comes first, the peptide text is derived from it.

Key:
[1] = biological target: Wnt-responsive promoter (TCF/LEF); test: Wnt-dependent luciferase reporter assay; format: cell-based, murine
Description: The luciferase reporter assay is commonly used as a tool to study gene expression at the transcriptional level. Peptides from libraries described herein were characterized for ability to suppress transcription in cells with luciferase expression controlled by a Wnt-responsive promoter. Peptides were added to cells transfected with luciferase gene downstream of a Wnt-responsive promoter. Cells were stimulated with Wnt3a protein and incubated with peptides from libraries described herein. Luminescence was recorded to determine the peptides with the highest β-catenin-inhibiting activity. EC50 values were calculated based on the inhibition of luminescence and expressed as concentration (uM) in Table 5.
Peptides were assessed for their ability to inhibit Wnt signaling. Murine 3T3 fibroblasts that express luciferase under a Wnt-responsive promoter (TCF/LEF) (Enzo Life Sciences, Farmingdale, NY) were stimulated with Wnt3a in the presence of increasing concentrations of peptide inhibitor (Hit 1: SEQ ID NO:217, Hit 2: SEQ ID NO:224, Hit 3: SEQ ID NO:228, Hit 4: SEQ ID NO:227, Hit 5: SEQ ID NO:220, Hit 6: SEQ ID NO:168. Hit 7: SEQ ID NO:226) or with vehicle control (FIG. 2A).

[2] = biological target: T1, β-catenin (Homo sapiens, UniProt P35222); test: KD50 measurement using competitive fluorescence polarization (FP) with labelled TCF4; format: binding; settings: fluorescence polarization, β-catenin; for pKd: read-out: β-Cat FP KD
T1 sequence (P35222 1-781): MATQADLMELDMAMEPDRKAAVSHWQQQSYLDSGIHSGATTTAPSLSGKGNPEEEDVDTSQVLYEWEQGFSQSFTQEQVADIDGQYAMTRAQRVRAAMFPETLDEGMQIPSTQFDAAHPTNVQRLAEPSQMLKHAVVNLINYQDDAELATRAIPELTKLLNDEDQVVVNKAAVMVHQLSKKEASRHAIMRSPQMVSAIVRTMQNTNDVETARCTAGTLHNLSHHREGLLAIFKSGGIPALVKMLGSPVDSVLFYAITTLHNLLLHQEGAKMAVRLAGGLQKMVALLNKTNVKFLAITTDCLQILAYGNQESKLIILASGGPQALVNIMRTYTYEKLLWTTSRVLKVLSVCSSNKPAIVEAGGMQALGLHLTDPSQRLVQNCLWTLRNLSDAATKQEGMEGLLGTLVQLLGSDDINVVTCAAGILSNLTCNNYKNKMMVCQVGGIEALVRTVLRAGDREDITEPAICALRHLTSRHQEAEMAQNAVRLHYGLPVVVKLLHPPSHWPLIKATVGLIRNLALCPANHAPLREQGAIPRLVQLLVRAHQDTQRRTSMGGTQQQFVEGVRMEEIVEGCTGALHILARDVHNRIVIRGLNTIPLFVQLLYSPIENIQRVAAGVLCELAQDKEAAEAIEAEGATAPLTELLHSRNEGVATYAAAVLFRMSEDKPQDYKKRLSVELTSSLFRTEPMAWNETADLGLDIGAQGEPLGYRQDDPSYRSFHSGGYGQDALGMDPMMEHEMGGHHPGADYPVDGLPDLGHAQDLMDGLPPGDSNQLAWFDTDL
Summary of the method: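 Each compound competes against labelled TCF4 (5 nM) for 100 nM β-catenin at room temperature, tested over 10 nM to 30 uM. Signal: polarization at 470/520 nm excitation/emission. Three repeat experiments were performed.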

SMILES	pEC50 [1]	β-Cat FP Hill slope [2]	pKd [2]
CC[C@H](C)[C@H](NC(=O)[C@H](CO)NC(=O)[C@H](CCC(=O)O)NC(=O)[C@@H]1CCCN1C(=O)[C@H](CC(C)C)NC(=O)[C@H](CCCNC(=N)N)NC(=O)CCN)C(=O)N[C@@H](CC(C)C)C(=O)N[C@@H](CC(=O)O)C(=O)N[C@@H](CCC(=O)O)C(=O)N[C@@H](Cc1c[nH]cn1)C(=O)N[C@H](C(=O)N[C@@H](CCC(N)=O)C(=O)N[C@@H](CCCNC(=N)N)C(=O)N[C@H](C(=O)N[C@@H](Cc1c[nH]c2ccccc12)C(=O)N1CCC[C@H]1C(N)=O)C(C)C)C(C)C [compound 410] (HELM PEPTIDE1{[bAla].R.L.P.E.S.I.L.D.E.H.V.Q.R.V.W.P.[am]}$$$$V2.0)	< 4.52	1.6	6.00 to 6.40
CC[C@H](C)[C@@H]1NC(=O)[C@@H](NC(=O)[C@H](CCC(N)=O)NC(=O)[C@H](C)N(C)C(=O)[C@H](Cc2c[nH]c3ccccc23)NC(C)=O)CCCCNC(=O)CC[C@@H](C(=O)N[C@@H](Cc2c[nH]cn2)C(=O)N[C@H](C(=O)N[C@@H](CCC(N)=O)C(=O)N[C@@H](CCCNC(=N)N)C(=O)N[C@H](C(=O)N[C@@H](Cc2c[nH]c3ccccc23)C(=O)N[C@@H](CCCNC(=N)N)C(N)=O)C(C)C)C2CCCCC2)NC(=O)[C@H](CC(=O)O)NC(=O)[C@H](CC(C)C)NC1=O [compound 449] (HELM PEPTIDE1{[ac].W.[meA].Q.K.I.L.D.E.H.[O=C([C@@H](N[*:1])C1CCCCC1)[*:2]].Q.R.V.W.R.[am]}$PEPTIDE1,PEPTIDE1,5:R3-9:R3$$$V2.0)	< 4.52	0.89	> 6.40
CC[C@H](C)[C@H](NC(=O)C(C)(CO)NC(=O)[C@H](CCC(=O)O)NC(=O)[C@H](Cc1c[nH]c2ccccc12)N(C)C(=O)[C@@H](N)Cc1c[nH]c2ccccc12)C(=O)N[C@@H](CC(C)C)C(=O)N[C@@H](CC(=O)O)C(=O)N[C@@H](CCC(=O)O)C(=O)N[C@@H](Cc1c[nH]cn1)C(=O)NC(C)(C(=O)N[C@@H](CCC(N)=O)C(=O)N[C@@H](CCCNC(=N)N)C(=O)N[C@H](C(=O)N[C@@H](Cc1c[nH]c2ccccc12)C(=O)NCC(N)=O)C(C)C)C(C)C (some centres unmarked) [compound 38] (HELM PEPTIDE1{W.[meW].E.[CC(CO)(N[*:1])C(=O)[*:2]].I.L.D.E.H.[CC(C)C(C)(N[*:1])C(=O)[*:2]].Q.R.V.W.G.[am]}$$$$V2.0)	< 4.52	0.9	> 6.40
CC[C@H](C)[C@@H]1NC(=O)[C@@H](NC(=O)[C@H](CCC(N)=O)NC(=O)[C@H](C)NC(=O)[C@H](Cc2c[nH]c3ccccc23)NC(C)=O)CCCCNC(=O)CC[C@@H](C(=O)N[C@@H](Cc2c[nH]cn2)C(=O)N[C@H](C(=O)N[C@@H](CCC(N)=O)C(=O)N[C@@H](CCCNC(=N)N)C(=O)N[C@H](C(=O)N[C@@H](Cc2c[nH]c3ccccc23)C(=O)NCC(N)=O)C(C)C)C2CCCCC2)NC(=O)[C@H](CC(=O)O)NC(=O)[C@H](CC(C)C)NC1=O [compound 441] (HELM PEPTIDE1{[ac].W.A.Q.K.I.L.D.E.H.[O=C([C@@H](N[*:1])C1CCCCC1)[*:2]].Q.R.V.W.G.[am]}$PEPTIDE1,PEPTIDE1,5:R3-9:R3$$$V2.0)	< 4.52	1.86	> 6.40
CC[C@H](C)[C@@H]1NC(=O)[C@@H](NC(=O)[C@H](CCC(N)=O)NC(=O)[C@H](C)N(C)C(=O)[C@@H](N)Cc2c[nH]c3ccccc23)CCCCNC(=O)CC[C@@H](C(=O)N[C@@H](Cc2c[nH]cn2)C(=O)N[C@H](C(=O)N[C@@H](CCC(N)=O)C(=O)N[C@@H](CCCNC(=N)N)C(=O)N[C@H](C(=O)N[C@@H](Cc2c[nH]c3ccccc23)C(=O)NCC(N)=O)C(C)C)C(C)C)NC(=O)[C@H](CC(=O)O)NC(=O)[C@H](CC(C)C)NC1=O [compound 401] (HELM PEPTIDE1{W.[meA].Q.K.I.L.D.E.H.V.Q.R.V.W.G.[am]}$PEPTIDE1,PEPTIDE1,4:R3-8:R3$$$V2.0)	< 4.52	0.7	6.00 to 6.40
CC[C@H](C)[C@@H]1NC(=O)[C@@H](NC(=O)[C@H](CCC(N)=O)NC(=O)[C@@H]2CCCCN2C(=O)[C@H](Cc2c[nH]c3ccccc23)NC(C)=O)CCCCNC(=O)CC[C@@H](C(=O)N[C@@H](Cc2c[nH]cn2)C(=O)N[C@H](C(=O)N[C@@H](CCC(N)=O)C(=O)N[C@@H](CCCNC(=N)N)C(=O)N[C@H](C(=O)N[C@@H](Cc2c[nH]c3ccccc23)C(=O)NCC(N)=O)C(C)C)C2CCCCC2)NC(=O)[C@H](CC(=O)O)NC(=O)[C@H](CC(C)C)NC1=O [compound 442] (HELM PEPTIDE1{[ac].W.[O=C([C@@H]1CCCCN1[*:1])[*:2]].Q.K.I.L.D.E.H.[O=C([C@@H](N[*:1])C1CCCCC1)[*:2]].Q.R.V.W.G.[am]}$PEPTIDE1,PEPTIDE1,5:R3-9:R3$$$V2.0)	> 5.12	1.51	> 6.40
CC[C@H](C)[C@@H]1NC(=O)[C@@H](NC(=O)[C@H](CCC(N)=O)NC(C)=O)CCCCNC(=O)CC[C@@H](C(=O)N[C@@H](Cc2c[nH]cn2)C(=O)N[C@H](C(=O)N[C@@H](CCC(N)=O)C(=O)N[C@@H](CCCNC(=N)N)C(=O)N[C@H](C(=O)N[C@@H](Cc2c[nH]c3ccccc23)C(=O)NCC(N)=O)C(C)C)C2CCCCC2)NC(=O)[C@H](CC(=O)O)NC(=O)[C@H](CC(C)C)NC1=O [compound 440] (HELM PEPTIDE1{[ac].Q.K.I.L.D.E.H.[O=C([C@@H](N[*:1])C1CCCCC1)[*:2]].Q.R.V.W.G.[am]}$PEPTIDE1,PEPTIDE1,3:R3-7:R3$$$V2.0)	4.52 to 4.65	0.7	> 6.40
CC[C@H](C)[C@H](NC(=O)C(C)(CO)NC(=O)[C@H](CCC(=O)O)NC(=O)[C@H](Cc1c[nH]c2ccccc12)NC(=O)[C@@H](N)CCSC)C(=O)N[C@@H](CC(C)C)C(=O)N[C@@H](CC(=O)O)C(=O)N[C@@H](CCC(=O)O)C(=O)N[C@@H](Cc1c[nH]cn1)C(=O)N[C@H](C(=O)N[C@@H](CCC(N)=O)C(=O)N[C@@H](CCCNC(=N)N)C(=O)N[C@H](C(=O)N[C@@H](Cc1c[nH]c2ccccc12)C(=O)NCC(N)=O)C(C)C)C(C)C (some centres unmarked) [compound 35] (HELM PEPTIDE1{M.W.E.[CC(CO)(N[*:1])C(=O)[*:2]].I.L.D.E.H.V.Q.R.V.W.G.[am]}$$$$V2.0)	< 4.52	0.96	> 6.40
CCCCCCCCCCCC(=O)N[C@@H](Cc1c[nH]c2ccccc12)C(=O)N(C)[C@@H](C)C(=O)N[C@@H](CCC(N)=O)C(=O)N[C@H]1CCCCNC(=O)CC[C@@H](C(=O)N[C@@H](Cc2c[nH]cn2)C(=O)N[C@H](C(=O)N[C@H]2CCC(=O)NCCCC[C@@H](C(N)=O)NC(=O)[C@H](Cc3c[nH]c4ccccc34)NC(=O)[C@H](C(C)C)NC(=O)[C@H](CC(=O)O)NC2=O)C2CCCCC2)NC(=O)[C@H](CC(=O)O)NC(=O)[C@H](CC(C)C)NC(=O)[C@H]([C@@H](C)CC)NC1=O [compound 465] (HELM PEPTIDE1{[CCCCCCCCCCCC(=O)[*:2]].W.[meA].Q.K.I.L.D.E.H.[O=C([C@@H](N[*:1])C1CCCCC1)[*:2]].E.D.V.W.K.[am]}$PEPTIDE1,PEPTIDE1,5:R3-9:R3|PEPTIDE1,PEPTIDE1,12:R3-16:R3$$$V2.0; bridges inferred)	> 5.12	0.7	–
CC[C@H](C)[C@H](NC(=O)[C@H](CO)NC(=O)[C@H](CCC(N)=O)NC(=O)[C@@H]1CCCN1C(=O)[C@H](Cc1c[nH]c2ccccc12)NC(C)=O)C(=O)N[C@@H](CC(C)C)C(=O)N[C@@H](CC(=O)O)C(=O)N[C@H]1CCC(=O)NCCCC[C@@H](C(=O)N[C@H](C(=O)N[C@@H](Cc2c[nH]c3ccccc23)C(=O)NCC(N)=O)C(C)C)NC(=O)[C@H](CCC(N)=O)NC(=O)[C@H](C2CCCCC2)NC(=O)[C@H](Cc2c[nH]cn2)NC1=O [compound 472] (HELM PEPTIDE1{[ac].W.P.Q.S.I.L.D.E.H.[O=C([C@@H](N[*:1])C1CCCCC1)[*:2]].Q.K.V.W.G.[am]}$PEPTIDE1,PEPTIDE1,9:R3-13:R3$$$V2.0)	4.82 to 5.12	0.89	> 6.40
